Test results published in patent US11439707B2, “Hypocrellin derivative substituted both in a peri-position and in 2-position by amino, preparation method, and application thereof” (priority 2017, dated 2022).

Assays:
[1] = absorption spectrum (maximum absorption wavelength, molar extinction coefficient); assay type: physicochemical
[2] = singlet oxygen efficiency test, reference rose bengal; assay type: physicochemical

| SMILES | maximum absorption wavelength [1] | molar extinction coefficient [1] | singlet oxygen yield [2] |
| --- | --- | --- | --- |
| CCNNc1c(O)c2c(=O)cc(OC)c3c4c(OC)cc(=O)c5c(NNCC)c(OC)c6c(c(c1C=C(C)C6C(C)=O)c23)c54 (stereo not drawn) [HB-36b] | 622 nm | 31,500 M^−1cm^−1 | 30% |
| COc1c(NCCO)c2c(=O)cc(OC)c3c4c(OC)cc(=O)c5c(O)c(NCCO)c6c(c(c1C(C(C)=O)C(C)=C6)c23)c54 (stereo not drawn) [HB-2b] | 627 nm | 31.500 M⁻¹ cm⁻¹ | 25% |
| COCCOCCC(=O)OCCOCCNc1c2c3c4c(c(OC)c(=O)c5c(O)cc(OC)c(c6c(OC)cc(NCCOCCOC(=O)CCOCCOC)c(c1=O)c63)c54)C(C(C)=O)C(C)=C2 (stereo not drawn) [HB-1c-PEG1] | 626 nm | 33,000 M^−1cm^−1 | 38% |
| COc1c(O)c2c(=O)cc(OC)c3c4c(OC)cc(=O)c5c(NCCSCCOCCO)c(NCCSCCOCCO)c6c(c(c1C(C(C)=O)C(C)=C6)c23)c54 (stereo not drawn) [HB-6a-PEG1] | 622 nm | 30,500 M^−1cm^−1 | 28% |
| COc1c2c3c4c(c(NC(CS)C(=O)O)c(=O)c5c(O)cc(OC)c(c6c(OC)cc(NC(CS)C(=O)O)c(c1=O)c63)c54)C=C(C)C2C(C)=O (stereo not drawn) [HB-25d] | 630 nm | 20,500 M^−1cm^−1 | 18% |
| COc1c(NCc2cccc[n+]2CCCC(=O)O)c2c(=O)cc(OC)c3c4c(OC)cc(=O)c5c(O)c(NCc6cccc[n+]6CCCC(=O)O)c6c(c(c1C(C(C)=O)C(C)=C6)c23)c54 (stereo not drawn) [HB-38b-N—COOH] | 620 nm | 21,500 M^−1cm^−1 | 18% |
| COCCOCCOCCOCCOCCOCCOC(=O)CCCCCNc1c2c3c4c(c(OC)c(=O)c5c(O)cc(OC)c(c6c(OC)cc(NCCCCCC(=O)OCCOCCOCCOCCOCCOCCOC)c(c1=O)c63)c54)CC(C)=C2 [HC-9c-PEG6] | 628 nm | 33,000 M^−1cm^−1 | 36% |
| COCCOCCOCCOCCOCCOCCOC(=O)C1CCC(Nc2c3c4c5c(c(OC)c(=O)c6c(NC7CCC(C(=O)OCCOCCOCCOCCOCCOCCOC)C7)cc(OC)c(c7c(OC)cc(O)c(c2=O)c74)c65)C(C(C)=O)C(C)=C3)C1 (stereo not drawn) [HB-19d-PEG6] | 636 nm | 31,000 M^−1cm^−1 | 32% |
| COCCOCCNC(=O)CCCNc1c(NCCCC(=O)NCCOCCOC)c2c(=O)cc(OC)c3c4c(OC)cc(=O)c5c(O)c(OC)c6c(c(c1C=C(C)C6)c23)c54 [HC-8a-NH-PEG1] | 621 nm | 30,500 M^−1cm^−1 | 30% |
| COCCOCCOCCOCCOCCOCCOCCOCCOCCOCCOCCOCCOCCC(=O)OC1CCC(Nc2c3c4c5c(c(OC)c(=O)c6c(O)cc(OC)c(c7c(OC)cc(NC8CCC(OC(=O)CCOCCOCCOCCOCCOCCOCCOCCOCCOCCOCCOCCOCCOC)CC8)c(c2=O)c74)c65)C(C(C)=O)C(C)=C3)CC1 (stereo not drawn) [HB-17c-PEG12] | 632 nm | 33,500 M^−1cm^−1 | 38% |
| COc1c(NC(CCC(=O)O)C(=O)O)c2c(=O)cc(OC)c3c4c(OC)cc(=O)c5c(O)c(NC(CCC(=O)O)C(=O)O)c6c(c(c1C(C(C)=O)C(C)=C6)c23)c54 (stereo not drawn) [HB-28b] | 620 nm | 21,000 M^−1cm^−1 | 19% |
| COc1c(O)c2c(=O)cc(OC)c3c4c(OC)cc(=O)c5c(NCC6CCC(C(=O)OCC[N+](C)(C)C)CC6)c(NCC6CCC(C(=O)OCC[N+](C)(C)C)CC6)c6c(c(c1CC(C)=C6)c23)c54 (stereo not drawn) [HC-13a-C2-N^+] | 622 nm | 30,500 M^−1cm^−1 | 30% |
| COc1c2c3c4c(c(NCCNCCOCCO)c(=O)c5c(O)cc(OC)c(c6c(OC)cc(NCCNCCOCCO)c(c1=O)c63)c54)C=C(C)C2C(C)=O (stereo not drawn) [HB-5d-PEG1] | 625 nm | 30,500 M^−1cm^−1 | 32% |
| COCCOCCN1C(=O)CN(C(=O)OCCNc2c(NCCOC(=O)N3CC(=O)N(CCOCCOC)C(=O)C3)c3c(=O)cc(OC)c4c5c(OC)cc(=O)c6c(O)c(OC)c7c(c(c2C=C(C)C7C(C)=O)c34)c65)CC1=O (stereo not drawn) [HB-40a-PEG1] | 624 nm | 31,500 M^−1cm^−1 | 32% |
| COCCOCCOCCOCCOCCOCCOCCC(=O)N1CCC(CNc2c3c4c5c(c(OC)c(=O)c6c(O)cc(OC)c(c7c(OC)cc(NCC8CCN(C(=O)CCOCCOCCOCCOCCOCCOCCOC)CC8)c(c2=O)c74)c65)C(C(C)=O)C(C)=C3)CC1 (stereo not drawn) [HB-31c-PEG6] | 632 nm | 33,500 M^−1cm^−1 | 40% |
| COc1c2c3c4c(c(NC(CC(=O)O)C(=O)O)c(=O)c5c(O)cc(OC)c(c6c(OC)cc(NC(CC(=O)O)C(=O)O)c(c1=O)c63)c54)C=C(C)C2C(C)=O (stereo not drawn) [HB-27d] | 620 nm | 21,500 M^−1cm^−1 | 18% |

| SMILES | maximum absorption wavelength [1] | molar extinction coefficient [1] | singlet oxygen yield [2] |
| --- | --- | --- | --- |
| COc1c(NCCCC(=O)O)c2c(=O)cc(OC)c3c4c(OC)cc(=O)c5c(O)c(NCCCC(=O)O)c6c(c(c1C(C(C)=O)C(C)=C6)c23)c54 (stereo not drawn) [HB-8b] | 618 nm | 28,500 M^−1cm^−1 | 26% |
| COc1c(O)c2c(=O)cc(OC)c3c4c(OC)cc(=O)c5c(NCCS(=O)(=O)O)c(NCCS(=O)(=O)O)c6c(c(c1C(C(C)=O)C(C)=C6)c23)c54 (stereo not drawn) [HB-11a-C2-SO3H] | 620 nm | 30,000 M^−1cm^−1 | 32% |
| COc1c(O)c2c(=O)cc(OC)c3c4c(OC)cc(=O)c5c(NC(CC(=O)O)C(=O)O)c(NC(CC(=O)O)C(=O)O)c6c(c(c1C(C(C)=O)C(C)=C6)c23)c54 (stereo not drawn) [HB-27a] | 621 nm | 20,500 M^−1cm^−1 | 18% |
| COCCOCCOCCOCCOCCOCCOCCC(=O)OCCOCCNc1c(O)c2c(=O)cc(OC)c3c4c(OC)cc(=O)c5c(NCCOCCOC(=O)CCOCCOCCOCCOCCOCCOCCOC)c(OC)c6c(c(c1C=C(C)C6C(C)=O)c23)c54 (stereo not drawn) [HB-1b-PEG6] | 622 nm | 30,000 M^−1cm^−1 | 32% |
| COc1c(O)c2c(=O)cc(OC)c3c4c(OC)cc(=O)c5c(NCC6CCC(C(=O)NCCS(=O)(=O)O)CC6)c(NCC6CCC(C(=O)NCCS(=O)(=O)O)CC6)c6c(c(c1CC(C)=C6)c23)c54 (stereo not drawn) [HC-13a-C2-SO3H] | 622 nm | 31,000 M^−1cm^−1 | 32% |
| COC(=O)C1CCC(CNc2c(O)c3c(=O)cc(OC)c4c5c(OC)cc(=O)c6c(NCC7CCC(C(=O)OC)CC7)c(OC)c7c(c(c2C=C(C)C7C(C)=O)c34)c65)CC1 (stereo not drawn) [HB-13b-AcE] | 623 nm | 27,000 M^−1cm^−1 | 24% |
| COc1c2c3c4c(c(NCCS(=O)(=O)OC)c(=O)c5c(NCCS(=O)(=O)OC)cc(OC)c(c6c(OC)cc(O)c(c1=O)c63)c54)C=C(C)C2C(C)=O (stereo not drawn) [HB-12c] | 622 nm | 23,500 M^−1cm^−1 | 22% |
| COc1c2c3c4c(c(NCC(=O)O)c(=O)c5c(NCC(=O)O)cc(OC)c(c6c(OC)cc(O)c(c1=O)c63)c54)C=C(C)C2C(C)=O (stereo not drawn) [HB-7c] | 618 nm | 27,500 M^−1cm^−1 | 27% |
| COc1c2c3c4c(c(NCCSCCOCCO)c(=O)c5c(O)cc(OC)c(c6c(OC)cc(NCCSCCOCCO)c(c1=O)c63)c54)C=C(C)C2C(C)=O (stereo not drawn) [HB-6d-PEG1] | 625 nm | 30,500 M^−1cm^−1 | 32% |
| COc1c(NC2CCCC(C(=O)O)C2)c2c(=O)cc(OC)c3c4c(OC)cc(=O)c5c(O)c(NC6CCCC(C(=O)O)C6)c6c(c(c1C(C(C)=O)C(C)=C6)c23)c54 (stereo not drawn) [HB-15b] | 623 nm | 27,000 M^−1cm^−1 | 24% |
| COCCOCCOCCOCCOCCOCCOC(=O)C1CCC(Nc2c(O)c3c(=O)cc(OC)c4c5c(OC)cc(=O)c6c(NC7CCC(C(=O)OCCOCCOCCOCCOCCOCCOC)CC7)c(OC)c7c(c(c2C=C(C)C7C(C)=O)c34)c65)CC1 (stereo not drawn) [HB-14b-PEG6] | 624 nm | 30,500 M^−1cm^−1 | 34% |
| COCCOCCNc1c(NCCCC(=O)O)c2c3c4c(c(OC)c(O)c5c(=O)cc(OC)c(c6c(OC)cc(=O)c1c63)c54)C(C(C)=O)C(C)=C2 (stereo not drawn) [HB-47a-PEG1] | 622 nm | 30,500 M^−1cm^−1 | 30% |
| COCCOCCOCCOCCOCCOCCOC(=O)CCCNc1c2c3c4c(c(OC)c(=O)c5c(O)cc(OC)c(c6c(OC)cc(NCCCC(=O)OCCOCCOCCOCCOCCOCCOC)c(c1=O)c63)c54)C(C(C)=O)C(C)=C2 (stereo not drawn) [HB-8c-PEG6] | 630 nm | 32,500 M^−1cm^−1 | 34% |
| COCCOC(=O)CCCNc1c(NCCCC(=O)OCCOC)c2c(=O)cc(OC)c3c4c(OC)cc(=O)c5c(O)c(OC)c6c(c(c1C=C(C)C6)c23)c54 [HC-8a-PEG1] | 621 nm | 30,000 M^−1cm^−1 | 28% |
| COc1c2c3c4c(c(NC5CCC(O)CC5)c(=O)c5c(NC6CCC(O)CC6)cc(OC)c(c6c(OC)cc(O)c(c1=O)c63)c54)C=C(C)C2C(C)=O (stereo not drawn) [HB-17c] | 622 nm | 26,000 M^−1cm^−1 | 23% |
| COc1c2c3c4c(c(NCc5cccc[n+]5C)c(=O)c5c(NCc6cccc[n+]6C)cc(OC)c(c6c(OC)cc(O)c(c1=O)c63)c54)C=C(C)C2C(C)=O (stereo not drawn) [HB-38c-N^+] | 622 nm | 22,500 M^−1cm^−1 | 21% |
